Measurements: patent US20100222269A1, “IMPROVED DERIVATIVES OF AMYLIN” (priority 2007, published 2010)
Read-outs that look alike come from different tables or passages of the source. Starred links: 1 amine or outer side, 2 acyl side, 3 side chain; linkers in the order of their positions; H or OH if unused. Positions of bridges follow the written chain, without caps; N, C: chain ends. Residues, ends and D or L forms follow the SMILES beside them. Groups on a side chain read outwards from the residue. *: point of attachment. X1 = O=C(CCCCCCCCCCCCCCCc1nnn[nH]1)NS(=O)(=O)CCCC(=O)*; C18 diacid = O=C(O)CCCCCCCCCCCCCCCCC(=O)*; γGlu = O=C(O)[C@H](CCC(=O)[*:2])N[*:1]

Target: T1, Amylin 3(a) receptor (human calcitonin receptor (CTa) with RAMP-3) (Homo sapiens, UniProt O60896+P30988)
T1 construct: expressed in transfected cells; host or cells: BHK570 (baby hamster kidney) cells, stably transfected, with CRE-luciferase reporter
Experiment: Amylin luciferase assay (CRE-luciferase reporter in BHK Amylin 3(a)//CRE-luc cells)
Assay type: cell-based
Text: It has previously been published (Poyner D R et al 2002, Pharmacological Reviews 54(2) 233-246) that activation of Amylin receptors (coexpression of Calcitonin receptor and receptor activity modifying peptides RAMPs) by Amylin leads to an increase in the intracellular concentration of cAMP. Consequently, transcription is activated at promotors containing multiple copies of the cAMP response element (CRE). It is thus possible to measure Amylin activity by use of a CRE luciferase reporter gene introduced into BHK cells also expressing an Amylin receptor.
2. Construction of an Amylin 3(a)/CRE-luc Cell Line
A BHK570 cell line stably transfected with the human calcitonin receptor (CTa) and a CRE-responsive luciferase reportergene. The cell line was further transfected with RAMP-3, using standard methods. This turns the Calcitonin receptor into an Amylin 3(a) receptor. Methotrexate, Neomycin, and Hygromycin are selection markers for luciferase, the Calcitonin receptor, and RAMP-3, respectively.
3. Amylin Luciferase Assay
To perform activity assays, BHK Amylin 3(a)//CRE-luc cells were seeded in white 96 well culture plates at a density of about 20.000 cells/well. The cells were in 100 μl growth medium (DMEM with 10% FBS, 1% Pen/Strep, 1 mM Na-pyruvate, 250 nM Methotrexate, 500 μg/ml Neomycin, and 400 μg/ml Hygromycin). After incubation overnight at 37° C. and 5% CO2, the growth medium was replaced by 50 μl/well assay medium (DMEM (without phenol red), Glumamax™, 10% FBS, and 10 mM Hepes, pH 7,4). Further, 50 μl/well of standard or sample in assay buffer were added. After 4 hours incubation at 37° C. and 5% CO2, the assay medium with standard or sample were removed and replaced by 100 μl/well PBS. Further, 100 μl/well LucLite™ was added. The plates were sealed and incubated at room temperature for 30 minutes. Finally, luminescence was measured on a TopCounter (Packard) in SPC (single photon counting) mode.

T1 sequence (O60896 24-148): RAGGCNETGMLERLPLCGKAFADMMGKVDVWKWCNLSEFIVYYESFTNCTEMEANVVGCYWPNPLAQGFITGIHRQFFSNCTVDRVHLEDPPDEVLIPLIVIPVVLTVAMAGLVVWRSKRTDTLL
T1 sequence (P30988 25-474): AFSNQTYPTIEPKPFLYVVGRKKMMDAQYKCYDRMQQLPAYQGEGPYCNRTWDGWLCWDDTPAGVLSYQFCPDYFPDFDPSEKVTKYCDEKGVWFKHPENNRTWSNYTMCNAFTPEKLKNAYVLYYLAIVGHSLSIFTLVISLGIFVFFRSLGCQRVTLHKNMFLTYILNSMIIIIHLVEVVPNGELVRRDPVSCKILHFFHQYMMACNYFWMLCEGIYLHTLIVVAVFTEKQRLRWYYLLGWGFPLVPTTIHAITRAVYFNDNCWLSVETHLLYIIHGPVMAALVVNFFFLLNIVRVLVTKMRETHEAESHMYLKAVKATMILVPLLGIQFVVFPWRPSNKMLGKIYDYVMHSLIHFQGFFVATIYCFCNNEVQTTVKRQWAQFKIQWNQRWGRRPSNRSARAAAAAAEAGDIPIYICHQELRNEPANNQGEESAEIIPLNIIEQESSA

Row | EC50 (BHK570 cells with human calcitonin receptor (CTa), RAMP-3 and CRE-luciferase reporter, 4 hours incubation, read-out: Potency luciferase assay) [nM] | Compound | EC50 [nM]
1 | 0.07 | CC[C@H](C)[C@H](NC(=O)[C@@H]1CCCN1C(=O)CNC(=O)[C@H](Cc1ccccc1)NC(=O)[C@H](CC(N)=O)NC(=O)[C@H](CC(N)=O)NC(=O)[C@H](CO)NC(=O)[C@H](CO)NC(=O)[C@H](CCCNC(=N)N)NC(=O)[C@H](C)NC(=O)[C@H](CC(C)C)NC(=O)[C@H](Cc1ccccc1)NC(=O)[C@H](CC(N)=O)NC(=O)[C@H](C)NC(=O)[C@H](CC(C)C)NC(=O)[C@H](CCCNC(=N)N)NC(=O)[C@H](CCC(N)=O)NC(=O)[C@@H](NC(=O)[C@H](C)NC(=O)[C@@H]1CSSC[C@H](NC(=O)[C@@H](N)CCCCNC(=O)CC[C@H](NC(=O)CCCCCCCCCCCCCCCCC(=O)O)C(=O)O)C(=O)NCC(=O)N[C@@H]([C@@H](C)O)C(=O)N[C@@H](C)C(=O)N[C@@H]([C@@H](C)O)C(=O)N1)[C@@H](C)O)C(=O)N[C@@H](CC(C)C)C(=O)N[C@@H](CO)C(=O)N1CCC[C@H]1C(=O)N[C@H](C(=O)N[C@@H](CC(N)=O)C(=O)N[C@H](C(=O)NCC(=O)N[C@@H](CO)C(=O)N[C@@H](CC(N)=O)C(=O)N[C@H](C(=O)N[C@@H](Cc1ccc(O)cc1)C(N)=O)[C@@H](C)O)C(C)C)[C@@H](C)O [Example 23, N-epsilon1-[(S)-4-carboxy-4-(17-carboxyheptadecanoylamino)butyryl]-[Gly3,Ala17,Arg18,Ser28]-pramlintide (1-37)] (H-K([γGlu-C18 diacid])CGTATCATQRLANFLARSSNNFGPILSPTNVGSNTY-NH2; disulfide 2-7) | 
2 |  | CC[C@H](C)[C@H](NC(=O)[C@@H]1CCCN1C(=O)CNC(=O)[C@H](Cc1ccccc1)NC(=O)[C@H](CC(N)=O)NC(=O)[C@H](CC(N)=O)NC(=O)[C@H](CO)NC(=O)[C@H](CO)NC(=O)[C@H](Cc1c[nH]cn1)NC(=O)[C@@H](NC(=O)[C@H](CC(C)C)NC(=O)[C@H](Cc1ccccc1)NC(=O)[C@H](CC(N)=O)NC(=O)[C@H](C)NC(=O)[C@H](CC(C)C)NC(=O)[C@H](CCCNC(=N)N)NC(=O)[C@H](CCC(N)=O)NC(=O)[C@@H](NC(=O)[C@H](C)NC(=O)[C@@H]1CSSC[C@H](N)C(=O)N[C@@H](CCCCNC(=O)CC[C@H](NC(=O)CCCS(=O)(=O)NC(=O)CCCCCCCCCCCCCCCc2nnn[nH]2)C(=O)O)C(=O)N[C@@H]([C@@H](C)O)C(=O)N[C@@H](C)C(=O)N[C@@H]([C@@H](C)O)C(=O)N1)[C@@H](C)O)C(C)C)C(=O)N[C@@H](CC(C)C)C(=O)N1CCC[C@H]1C(=O)N1CCC[C@H]1C(=O)N[C@H](C(=O)N[C@@H](CC(N)=O)C(=O)N[C@H](C(=O)NCC(=O)N[C@@H](CO)C(=O)N[C@@H](CC(N)=O)C(=O)N[C@H](C(=O)N[C@@H](Cc1ccc(O)cc1)C(N)=O)[C@@H](C)O)C(C)C)[C@@H](C)O [Example 42, N-epsilon3-{4-carboxy-4-[4-(16-1H-tetrazol-5-ylhexadecanoylsulfamoyl)butyrylamino]butyryl}-[Lys3]-pramlintide (2-37)] (H-CK([γGlu-X1])TATCATQRLANFLVHSSNNFGPILPPTNVGSNTY-NH2; disulfide 1-6; N-terminus and C-terminus assumed) | 0.04
